Data: patent US6525001B1, “Substituted pyrimidine and pyridine herbicides” (Mid-American Commercialization Corporation, priority 1997, dated 2003)

Columns and labels:
Type in all cases: in vivo
[1] = tested on: itchgrass (Rottboellia exaltata); assay: Test E pre-/postemergence/post directed; parameters: key: 0 is no injury; 100 is complete control; conditions: PREEMERGENCE
In short: (§1)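 Greenhouse pot-grown plants; compound in non-phytotoxic solvent with surfactant applied preemergence to soil within one day of planting, postemergence at two to four leaf stage (three to twenty cm), or post-directed to plant base and soil. Visual injury rated 13 to 21 days after application, 0 (none) to 100 (complete control).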

[2] = tested on: johnson grass (Sorghum halepense); assay: Test E pre-/postemergence/post directed; parameters: key: 0 is no injury; 100 is complete control; conditions: PREEMERGENCE
In short: as §1

[3] = tested on: sugarcane (Saccharum officinarum); assay: Test E pre-/postemergence/post directed; parameters: key: 0 is no injury; 100 is complete control
In short: as §1

[4] = tested on: barnyardgrass (Echinochloa crus-galli); assay: Test E pre-/postemergence/post directed; parameters: key: 0 is no effect; 100 is complete control; conditions: PREEMERGENCE
In short: as §1

[5] = tested on: itchgrass (Rottboellia exaltata); assay: Test E pre-/postemergence/post directed; parameters: key: 0 is no effect; 100 is complete control; conditions: PREEMERGENCE
In short: as §1

[6] = tested on: surinam grass (Brachiaria decumbens); assay: Test E pre-/postemergence/post directed; parameters: key: 0 is no injury; 100 is complete control; conditions: PREEMERGENCE
In short: as §1

[7] = tested on: Spanishneedles (Bidens bipinnata); assay: Test E pre-/postemergence/post directed; parameters: key: 0 is no injury; 100 is complete control; conditions: PREEMERGENCE
In short: as §1

[8] = tested on: wild buckwheat (Polygonum convolvulus); assay: Test D; parameters: key: 0 is no effect; 100 is complete control; conditions: PREEMERGENCE, Rate 125 g/ha
[9] = tested on: Russian thistle (Salsola kali); assay: Test D; conditions: POSTEMERGENCE
In short: (§2)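 Each species is treated with compound formulated in a solvent mixture with surfactant, postemergence treatment being at the 1- to 4-leaf stage. Response is judged visually after approximately 21 to 28 days, relative to untreated controls, from 0 (no effect) to 100 (complete control).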

[10] = tested on: field violet (Viola arvensis); assay: Test D; parameters: key: 0 is no effect; 100 is complete control; conditions: POSTEMERGENCE
In short: as §2

[11] = tested on: downy brome (Bromus tectorum); assay: Test D; parameters: key: 0 is no effect; 10 is complete control; conditions: PREEMERGENCE, Rate 62 g/ha
[12] = tested on: Italian ryegrass (Lolium multiflorum); assay: Test D; parameters: key: 0 is no effect; 10 is complete control; conditions: PREEMERGENCE, Rate 62 g/ha
[13] = tested on: wild buckwheat (Polygonum convolvulus); assay: Test D; parameters: key: 0 is no effect; 10 is complete control; conditions: PREEMERGENCE, Rate 62 g/ha
[14] = tested on: downy brome (Bromus tectorum); assay: Test D; parameters: key: 0 is no effect; 100 is complete control; conditions: PREEMERGENCE
[15] = tested on: Russian thistle (Salsola kali); assay: Test E pre-/postemergence/post directed; conditions: PREEMERGENCE
In short: as §1

## Cc1cnc(-n2cnc(C(F)(F)F)c2)nc1Cc1cccc(C(F)(F)F)c1 [Compound 44]
[1]; Rate 32 g/ha
  Plant response rating, Itchgrass: 0
[1]; Rate 64 g/ha
  Plant response rating, Itchgrass: 0
[2]; Rate 64 g/ha
  Plant response rating, Johnsongrass: 0

## Cc1cnc(-n2ccc(C(F)(F)F)n2)nc1Cc1cccc(C(F)(F)F)c1 [Example 2, 5-methyl-4-[[3-(trifluoromethyl)phenyl]methyl]-2-[3-(trifluoromethyl)-1H-pyrazol-1-yl]pyrimidine]
[3]; POSTEMERGENCE, Rate 32 g/ha
  Plant response rating, Sugarcane: 20
[3]; POSTEMERGENCE, Rate 64 g/ha
  Plant response rating, Sugarcane: 20
[3]; POSTEMERGENCE, Rate 125 g/ha
  Plant response rating, Sugarcane: 20
[3]; POSTEMERGENCE, Rate 250 g/ha
  Plant response rating, Sugarcane: 25
[3]; POSTEMERGENCE, Rate 500 g/ha
  Plant response rating, Sugarcane: 25
[3]; PREEMERGENCE, Rate 64 g/ha
  Plant response rating, Sugarcane: 0
[4]; Rate 125 g/ha
  Plant response rating, Barnyardgrass: 100
[4]; Rate 250 g/ha
  Plant response rating, Barnyardgrass: 100
[5]; Rate 500 g/ha
  Plant response rating, Itchgrass: 100

## CCc1cnc(-n2ccc(C(F)(F)F)n2)nc1Cc1cccc(C(F)(F)F)c1 [Compound 46]
[1]; Rate 32 g/ha
  Plant response rating, Itchgrass: 0
[1]; Rate 64 g/ha
  Plant response rating, Itchgrass: 0
[2]; Rate 32 g/ha
  Plant response rating, Johnsongrass: 0
[2]; Rate 64 g/ha
  Plant response rating, Johnsongrass: 0
[2]; Rate 125 g/ha
  Plant response rating, Johnsongrass: 0
[2]; Rate 250 g/ha
  Plant response rating, Johnsongrass: 0
[6]; Rate 32 g/ha
  Plant response rating, Surinam grass: 0
[6]; Rate 64 g/ha
  Plant response rating, Surinam grass: 0

## Cc1cnc(-c2ccc(C(F)(F)F)cc2)nc1Cn1ccc(C(F)(F)F)n1 [compound 9]
[7]; Rate 32 g/ha
  Plant response rating, Spanishneedles: 0
[6]; Rate 32 g/ha
  Plant response rating, Surinam grass: 0
[5]; Rate 32 g/ha
  Plant response rating, Itchgrass: 100
[5]; Rate 125 g/ha
  Plant response rating, Itchgrass: 100
[5]; Rate 250 g/ha
  Plant response rating, Itchgrass: 100

## Cc1cnc(-n2cnc(C(F)(F)F)n2)nc1C(=O)c1cccc(C(F)(F)F)c1 [Compound 67]
[7]; Rate 32 g/ha
  Plant response rating, Spanishneedles: 0
[7]; Rate 64 g/ha
  Plant response rating, Spanishneedles: 0

## Cc1cnc(-n2ccc(C(F)(F)F)n2)nc1Cn1ccc(C(F)(F)F)n1 [Compound 52]
[8]
  Plant response rating, Wild buckwheat: 100

## CCc1cnc(-c2ccc(C(F)(F)F)cc2)nc1Cc1cccc(C(F)(F)F)c1 [Compound 22]
[9]; Rate 62 g/ha
  Plant response rating, Russian thistle: 80
[9]; Rate 125 g/ha
  Plant response rating, Russian thistle: 80
[10]; Rate 62 g/ha
  Plant response rating, Field violet: 100
[10]; Rate 125 g/ha
  Plant response rating, Field violet: 100
[11]
  Plant response rating, Downy brome: 0
[12]
  Plant response rating, I. Ryegrass: 0
[13]
  Plant response rating, Wild buckwheat: 0
[14]; Rate 125 g/ha
  Plant response rating, Downy brome: 100

## Cc1cnc(-c2ccc(C(F)(F)F)cc2)nc1Cc1cccc(C(F)(F)F)c1 [Example 1, 5-methyl-2-[4-(trifluoromethyl)phenyl]-4-[[3-(trifluoromethyl)phenyl]methyl]pyrimidine]
[9]; Rate 16 g/ha
  Plant response rating, Russian thistle: 40
[9]; Rate 62 g/ha
  Plant response rating, Russian thistle: 60
[9]; Rate 125 g/ha
  Plant response rating, Russian thistle: 50
[10]; Rate 16 g/ha
  Plant response rating, Field violet: 20
[10]; Rate 31 g/ha
  Plant response rating, Field violet: 100
[10]; Rate 62 g/ha
  Plant response rating, Field violet: 100
[10]; Rate 125 g/ha
  Plant response rating, Field violet: 80
[14]; Rate 250 g/ha
  Plant response rating, Downy brome: 100

## Cc1cnc(-c2ccc(C(F)(F)F)cc2)nc1Cc1cccc(OC(F)(F)F)c1 [Compound 15]
[3]; PREEMERGENCE, Rate 32 g/ha
  Plant response rating, Sugarcane: 0
[3]; PREEMERGENCE, Rate 64 g/ha
  Plant response rating, Sugarcane: 0
[3]; PREEMERGENCE, Rate 125 g/ha
  Plant response rating, Sugarcane: 10
[3]; PREEMERGENCE, Rate 250 g/ha
  Plant response rating, Sugarcane: 10
[15]; Rate 32 g/ha
  Plant response rating, Russian thistle: 70
[15]; Rate 64 g/ha
  Plant response rating, Russian thistle: 90
[15]; Rate 125 g/ha
  Plant response rating, Russian thistle: 95
[15]; Rate 250 g/ha
  Plant response rating, Russian thistle: 95
